Experimental findings from ChEMBL document CHEMBL3763037 (J Med Chem, 2016) are described below.

Bounds are passed on as bounds.

Series [1] deals with LoVo. As to the kind of experiment: cells. The note with it: Homo sapiens, 120 h.
The target of series [2] is Poly [ADP-ribose] polymerase 1 (Homo sapiens, UniProt P09874). The series can be described thus: Inhibition of human PARP1 using [3H]NAD as substrate after 1 min by microplate scintillation counting analysis.
Series [3] addresses PARP 1, 2 and 3 (Homo sapiens, UniProt P09874+Q9Y6F1+Q9UGN5). As to the kind of experiment: Inhibition of PARP in human LoVo cells assessed as inhibition of poly(ADP)-ribose polymerization for 30 mins by fluorescence assay. Type of series: cell-based.
Series [4] can be described thus: Cytotoxicity against BRCA2-deficient human Capan1 cells. In kind it is functional, cell-based, CAPAN-1. As to conditions: Homo sapiens, CAPAN-1.
Series [5] can be described thus: Half life in rat liver microsomes. Type of series: ADME. Background: Liver microsomes are a subcellular fraction often used to study metabolism.
A short description of series [6]: (§1) AUC in Sprague-Dawley rat at 10 mg/kg, po by LC-MS/MS analysis. In kind it is ADME, organism-based. As to conditions: Sprague-Dawley, in vivo.
Series [7] can be described thus: Clearance in Sprague-Dawley rat at 5 mg/kg, iv by LC-MS/MS analysis. Type of series: ADME, organism-based. The note with it: in vivo.
Series [8] can be described thus: Volume of distribution at steady state in Sprague-Dawley rat at 5 mg/kg, iv by LC-MS/MS analysis. Type of series: ADME, organism-based. As to conditions: in vivo, read-out: Vdss.
Series [9] is described as follows: Terminal eliminational half life in Sprague-Dawley rat at 5 mg/kg, iv by LC-MS/MS analysis. The note with it: Sprague-Dawley, in vivo, read-out: beta t1/2 (converted). Type of series: ADME, organism-based.
Series [10] can be described thus: Cmax in Sprague-Dawley rat at 10 mg/kg, po by LC-MS/MS analysis. In kind it is ADME, organism-based. The arrangement: dose 10 mg/kg, route oral. As to conditions: in vivo.
Series [11] can be described thus: (§2) Oral bioavailability in Sprague-Dawley rat at 10 mg/kg by LC-MS/MS analysis. As to conditions: Sprague-Dawley, in vivo. In kind it is ADME, organism-based.
Series [12] concerns Rattus norvegicus. The description is as §1. In kind it is ADME, organism-based. The note with it: in vivo.
In series [13] the test system is Rattus norvegicus. The description is as §2. Type of series: ADME, organism-based. The note with it: in vivo.

Chain of Poly [ADP-ribose] polymerase 1 (P09874 whole entry): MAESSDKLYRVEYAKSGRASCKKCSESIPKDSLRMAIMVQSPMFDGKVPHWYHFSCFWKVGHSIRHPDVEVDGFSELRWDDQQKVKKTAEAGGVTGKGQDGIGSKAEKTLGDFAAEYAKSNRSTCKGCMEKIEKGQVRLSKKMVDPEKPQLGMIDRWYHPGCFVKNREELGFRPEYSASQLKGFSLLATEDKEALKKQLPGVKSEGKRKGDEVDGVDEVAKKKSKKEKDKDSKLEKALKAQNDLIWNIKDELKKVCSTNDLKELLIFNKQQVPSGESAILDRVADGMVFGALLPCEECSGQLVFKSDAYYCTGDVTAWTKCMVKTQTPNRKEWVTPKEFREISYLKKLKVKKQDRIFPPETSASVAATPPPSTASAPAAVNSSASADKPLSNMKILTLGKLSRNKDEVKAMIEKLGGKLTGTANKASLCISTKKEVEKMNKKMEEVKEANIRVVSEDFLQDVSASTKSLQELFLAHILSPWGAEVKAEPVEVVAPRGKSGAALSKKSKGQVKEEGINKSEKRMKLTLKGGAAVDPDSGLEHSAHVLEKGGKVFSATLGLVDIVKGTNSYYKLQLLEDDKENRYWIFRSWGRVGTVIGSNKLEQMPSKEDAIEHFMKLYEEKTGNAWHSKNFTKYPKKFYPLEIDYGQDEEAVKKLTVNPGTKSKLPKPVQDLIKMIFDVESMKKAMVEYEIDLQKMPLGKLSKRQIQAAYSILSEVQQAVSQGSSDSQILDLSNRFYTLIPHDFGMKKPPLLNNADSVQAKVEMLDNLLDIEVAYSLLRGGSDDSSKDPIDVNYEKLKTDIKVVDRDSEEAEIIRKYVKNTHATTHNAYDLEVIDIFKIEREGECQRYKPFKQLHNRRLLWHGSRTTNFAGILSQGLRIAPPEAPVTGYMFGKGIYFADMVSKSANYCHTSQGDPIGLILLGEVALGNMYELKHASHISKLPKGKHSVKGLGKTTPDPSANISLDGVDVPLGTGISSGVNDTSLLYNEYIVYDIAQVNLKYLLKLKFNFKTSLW

Consider `O=c1[nH]nc2c3c(cccc13)NC(c1ccc(CN3CCC3)cc1)C2c1ccc(F)cc1` (centres undefined), for which the concentration for 50% growth inhibition (GI50) – broadly, the concentration giving 50% growth inhibition – in [1] was determined as 95000 nM. For the same molecule, the half-inhibitory concentration (IC50) (usually the concentration at which inhibition is half-maximal) in [2] came out at 3.09 nM. Further, the EC50 – broadly, the concentration needed to bring the measured effect to its halfway point – in [3] turned out to be 3.81 nM; in series [4] it was 276 nM. Also, in series [5], the half-life worked out at 1.48 h.

In series [1], `CN(C)Cc1ccc(C2Nc3cccc4c(=O)[nH]nc(c34)C2c2ccc(F)cc2)cc1` (centres undefined) showed a GI50 of 76000 nM. In [2], the IC50 turned out to be 2.48 nM. The figures for the EC50 in series [3] and in series [4] were 18.5 nM and 1730 nM, respectively. Further, in series [5], the half-life is 0.733 h.

`CN(C)Cc1ccc(C2Nc3cccc4c(=O)[nH]nc(c34)C2c2ccccc2)cc1` (centres undefined) returned a GI50 in series [1] of 59000 nM. The molecule also registered a 50% inhibitory concentration (IC50) in series [2] of 2.36 nM. Moreover, the EC50 in series [3] amounted to 6 nM; in series [4], 387 nM. In [5], this molecule yielded a half-life of 0.2 h.

Regarding `Cn1ccnc1[C@H]1c2n[nH]c(=O)c3cccc(c23)N[C@@H]1c1ccc(F)cc1`, the AUC (commonly concentration integrated over time) in series [6] is 36500 ng·h/mL. Moreover, the clearance (commonly the rate of elimination divided by the concentration) in series [7] worked out at 4 mL/min/kg. The Vd in series [8] worked out at 0.5 L/kg. In series [1], this molecule showed a concentration for 50% growth inhibition (GI50) of 261 nM. Further, half-maximal inhibition in series [2] (IC50) required 2.25 nM. For the same molecule, the figures for the EC50 in series [3] and in [4] were 6.9 nM and 305 nM, respectively. For the same molecule, in [9], the half-life was 2.3 h. Also, the Cmax (as a rule, the maximum level reached in the sampled fluid or tissue) in [10] worked out at 10500 ng/mL. In series [11], the bioavailability (as a rule, the share of a dose that reaches the circulation, judged against a reference dose that is usually intravenous) was determined as 91%.

Regarding `Cn1ncnc1C1c2n[nH]c(=O)c3cccc(c23)NC1c1ccccc1` (centres undefined), the 50% growth inhibitory concentration (GI50) in series [1] is above 400000 nM. Also, the IC50 in series [2] came out at 2.4 nM. For the same molecule, the 50% effective concentration (EC50) in [3] was 149 nM; in series [4], 170 nM. This molecule came in with a half-life in series [5] of 6.9 h.

In turn, `Cn1ccnc1[C@H]1c2n[nH]c(=O)c3cc(F)cc(c23)N[C@@H]1c1ccc(F)cc1` had an AUC in series [12] of 1810 ng·h/mL. Besides, in series [8], the Vd stood at 0.73 L/kg. For the same molecule, the GI50 in series [1] stood at 25 nM. The same molecule had a 50% inhibitory concentration (IC50) in series [2] of 1.6 nM. Further, the figures for the EC50 in series [3] and in series [4] were 17.9 nM and 39 nM, respectively. The half-life in series [9] is 2.1 h. The same molecule displayed a Cmax in series [10] of 3990 ng/mL. This molecule displayed a F in series [13] of 68%.

On to `Cc1ccc(C2c3n[nH]c(=O)c4cccc(c34)NC2c2ccc(CN(C)C)cc2)cc1` (centres undefined), for which, in series [1], it took 123000 nM to inhibit growth by half (GI50). Moreover, in series [2], the 50% inhibitory concentration (IC50) came out at 1.95 nM. Moreover, the EC50 was 10.8 nM in [3] and 514 nM in series [4]. In [5], this molecule yielded a half-life of 0.583 h.

In series [1], `Cn1ccnc1C1c2n[nH]c(=O)c3cccc(c23)NC1c1ccc(F)cc1` (centres undefined) displayed a 50% growth inhibitory concentration (GI50) of 75500 nM. The molecule also showed a half-inhibitory concentration (IC50) in series [2] of 2.08 nM. Also, the concentration giving a half-maximal response (EC50) in [3] came to 19.7 nM; in [4] it was 418 nM. The half-life in series [5] is above 2 h.

The molecule `O=c1[nH]nc2c3c(cccc13)NC(c1ccc(CN3CCCC3)cc1)C2c1ccc(F)cc1` (centres undefined) registered a 50% growth inhibitory concentration (GI50) in series [1] of 134000 nM. This molecule also came in with an IC50 in series [2] of 2.02 nM. Besides, the EC50 in [3] is 23 nM; in series [4], 454 nM. Also, the half-life in [5] was found to be 1.48 h.

In turn, `Cn1ccnc1C1c2n[nH]c(=O)c3cc(F)cc(c23)NC1c1ccccc1` (centres undefined) came in with a GI50 in [1] of 36300 nM. Further, in [2], the IC50 was 2.14 nM. The EC50 in series [3] is 18.1 nM; in series [4], 108 nM. The molecule also displayed a half-life in [5] of 1.72 h.
